According to US20220142934A1, “COMBINATION THERAPEUTICS AND METHODS FOR THE TREATMENT OF NEURODEGENERATIVE AND OTHER DISEASES” (Aphios Corporation, priority 2020, published 2022):

Columns and labels:
ADAM10 = ADAM10 (alpha-secretase) expression in SH-SY5Y cells; type: cell-based; conditions: each agent alone or in combination
Excerpt: Therefore, Bryostatin-1 may increase a-secretase processing through 2 independent mechanisms: (i) activation of PKCs which stimulate secretase; and (ii) increased expression of a-secretase.

[1] = system: Mouse strain B6C3-Tg carrying mutant Swedish Amyloid precursor protein (sweAPP) and PSI (presenilin-l) genes; experiment: Water maze studies in Alzheimer's disease mouse model; type: in vivo
Excerpt: Mouse strain B6C3-Tg carrying mutant Swedish Amyloid precursor protein (sweAPP) and PSI (presenilin-l) genes associated with early onset Alzheimer's disease were subjected to water maze tests at 5-6 months of age.

prostate cancer cells = conditions: by modulating PKC delta translocation and preventing TNF-alpha release; cited from earlier work
[2] = system: SH-SY5Y neuroblastoma cells; experiment: sAPPα formation/release in SH-SY5Y cells (6E10 western blot, densitometry); type: cell-based; conditions: Bryostatin-1 alone
Method: Cells were treated with RA, Bryostatin-1 (10^−9M)+RA, Bryostatin-1 (10^−10M) RA+Bryostatin-1 (10^−10M) for 3 h. Representative western blots show sAPPα recovered from culture medium.

CCC/C=C/C=C/C(=O)O[C@H]1/C(=C/C(=O)OC)C[C@H]2C[C@H]([C@@H](C)O)OC(=O)C[C@H](O)C[C@@H]3C[C@H](OC(C)=O)C(C)(C)[C@](O)(C[C@@H]4C/C(=C/C(=O)OC)C[C@H](/C=C/C(C)(C)[C@]1(O)O2)O4)O3 [Bryostatin-1]
expression of ADAM10 (the major form of alpha-secretase) (ADAM10): significantly increase | protection against Alzheimer's disease mediated memory loss (water maze) ([1]; 5 micrograms/mouse on alternative days orally in an oil formulation, mice 5-6 months of age, vs control animals): significant protection | memory and cognition in AD model ([1]; mouse, in vivo): enhance memory and cognition | phorbol ester-induced apoptosis (prostate cancer cells): inhibits | sAPPα formation ([2]; 10^−9M, SH-SY5Y cells): increased | sAPPα recovered from culture medium ([2]; 10^−10M, 3 h, SH-SY5Y cells, vs control): significantly increased | activity of alpha-secretase ([2]; SH-SY5Y neuroblastoma cells): potently stimulate
